# Where two headings read alike, the source gives them in different places.
# Legend:
# [1] = test system: cytokine production in whole blood; experiment: In vitro LPS/R848-induced cytokine production assay in whole blood; type: cell-based, human; settings: read-out: TNF-α production IC50
# Procedure: (§1) Compounds of the present invention were also studied in in vitro LPS/R848/CpG-induced cytokine production assays. Exemplary protocols follow.
# (§2) Whole Blood (LPS): 13 mL of whole blood solution was prepared by combining whole blood in no serum medium with a ratio of 1:1. Cells were seeded in a 96-well plate with 130 ul/well of the cell suspension according to the plate map. 9 ul of 30 mM compound solution was added into the wells in the assigned rows, then serial solutions with 4× dilutions were made. That is, add 9 uL of 100% DMSO into each of the rest wells and take 3 uL of compound solution from the one-step higher concentration solution and mix well with the DMSO. For the second compound master plate, 196 uL of the growth medium (no serum media) were added into each of the wells and 4 uL of the compound solution from the first compound master plate was added and mixed with the media. Cells were treated for 0.5 h by adding 20 uL of the compound and the control solutions prepared in the second master plate to each well according to the plate map. Cells were stimulated with a) 0.1 ug/mL of LPS overnight for whole blood assay; b) 0.01 ug/mL of LPS overnight for hWBC assay. Plates were sealed with sealing films and the plates were centrifuged at 3000 rpm at 4 degrees C. for 5 min. The supernatants were transferred, and 100 ul of working Capture antibody solution was added to each well. The plates were sealed and incubated overnight at RT. IL-6, IFN-α or TNF-α detection antibody labeled with biotin: Added 100 uL of the Detection Antibody solution to each well. Covered the plate and incubated for 2 h at RT. Added 100 uL of Streptavidin-HRP solution to each well. Covered the plate and incubate for 20 min at RT in dark. Added 100 uL of Substrate Solution to each well. Incubated for 20 min at RT in dark. Added 50 uL of Stop Solution to each well. Gently tapped the plate to ensure thorough mixing. Determined the optical density of each well immediately, using a microplate reader set to 450 nm and also read at 540 nm or 570 nm for correction if wavelength correction is not available.
# [2] = test system: LPS induced TNF production; experiment: In vivo LPS-induced cytokine production in rats; design: species or system female Lewis rats; settings: for drug concentration corresponding to the minimal efficacious dose: 10 mg/kg PO; for minimal efficacious dose for inhibition of LPS induced TNF production in vivo: PO in 0.5% methylcellulose, LPS 2 hours after dose, serum TNF-α one hour later
# Procedure: Compounds of the present invention were also assayed in vivo to determine their inhibitory effect on LPS-induced cytokine production. In vivo studies of LPS-induced cytokine production was conducted in female Lewis rats (n=10 each). Rats were dosed with compound at 30, 10, 3, or 1 mg/kg, 5 mg/kg dexamethasone, or vehicle, dosed PO in 0.5% methylcellulose. After 2 hours, rats were administered LPS in PBS at 0.1 mg/mL, 1 mL/kg. One hour later, rats were bled and serum was analyzed for TNF-α produced by ELISA (eBioscience).
# [3] = test system: cytokine production in human white blood cells (hWBC); experiment: In vitro LPS/R848/CpG-induced cytokine production assay in hWBC; type: cell-based; settings: WBC
# Procedure: as §1, §2
# [4] = Homo sapiens, LPS 0.1 uM, overnight
# [5] = Homo sapiens, CPG 0.5 uM, overnight, read-out: IFN-α production IC50
# [6] = Homo sapiens, LPS 0.1 uM, overnight, read-out: TNF-α production IC50
# [7] = Homo sapiens, R848 1 uM, 5 h, read-out: TNF-α production IC50
Compound,"IC50 [1, 4]","IC50 ([1]; Homo sapiens, R848 1 uM, 20 h)",drug concentration corresponding to the minimal efficacious dose [2],minimal efficacious dose for inhibition of LPS induced TNF production in vivo [2],"IC50 [3, 5]","IC50 [3, 6]","IC50 [3, 7]","IC50 ([1]; LPS 0.1 uM, overnight)","IC50 ([1]; R848 1 uM, 20 h)","IC50 ([3]; CPG 0.5 uM, overnight, read-out: IFN-α production IC50)","IC50 ([3]; LPS 0.1 uM, overnight, read-out: TNF-α production IC50)","IC50 ([3]; R848 1 uM, 5 h, read-out: TNF-α production IC50)"
"CCc1nc2c(N[C@H]3CC[C@H](N4CCOCC4)CC3)nc(Nc3cnn(C4CCOCC4)c3)nc2s1 [Compound I-9, 2-ethyl-5-N-[1-(oxan-4-yl)-1H-pyrazol-4-yl]-7-N—[trans-4-(morpholin-4-yl)cyclohexyl]-[1,3]thiazolo[5,4-d]pyrimidine-5,7-diamine]",1000 to 5000 nM,250 to 1000 nM,1050 nM,10 mg/kg,≤ 250 nM,≤ 250 nM,≤ 250 nM,,,,,
"CCc1nc2c(N[C@H]3CC[C@H](N4CCOCC4)CC3)nc(Nc3cnn(C)c3)nc2s1 [Compound I-7, 2-ethyl-N5-(1-methyl-1H-pyrazol-4-yl)-N7-((1r,4r)-4-morpholinocyclohexyl)-thiazolo[5,4-d]pyrimidine-5,7-diamine]",≥ 5000 nM,1000 to 5000 nM,1600 nM,10 mg/kg,≤ 250 nM,250 to 1000 nM,250 to 1000 nM,,,,,
"2-methyl-N5-(1-methyl-1H-pyrazol-4-yl)-N7-((1r,4r)-4-morpholinocyclohexyl)thiazolo[5,4-d]pyrimidine-5,7-diamine [Compound I-24]",,,6600 nM,10 mg/kg,,,,≥ 5000 nM,1000 to 5000 nM,≤ 250 nM,≤ 250 nM,≤ 250 nM

# Reference: patent US9518065B2, “IRAK inhibitors and uses thereof” (NIMBUS IRIS, INC., priority 2013, dated 2016)
